Counter-ions that a name gives are not always drawn. Like-named read-outs stand apart in the source and are kept apart here.

The experiment deals with HIV wild type (WTRVA). Put plainly: HeLa cell assay, wild type virus (WTRVA). The class given is cell-based, HIV-1. Further details: scale not given here. To be noted: Human immunodeficiency virus 1, HeLa.
The mark [1] stands for this setting: HeLa cell assay, read-out: IC50 against WTRVA.
[2] abbreviates: HeLa-CD4-LTR-β-gal cells, wild type virus, read-out: WTRVA activity level.

Take `N#Cc1cc(Cl)cc(Oc2c(Cl)ccc(CNC(=O)c3[nH]ccc3Br)c2F)c1` [Example 204, 3-bromo-N-({4-chloro-3-[(3-chloro-5-cyanophenyl)oxy]-2-fluorophenyl}methyl)-1H-pyrrole-2-carboxamide]: under setting [1], the IC50 was less than 0.01 µM.

For the compound `N#Cc1cc(Cl)cc(Oc2c(Cl)ccc(Cn3cnc4nc[nH]c4c3=O)c2F)c1` [Example 368, 3-chloro-5-({6-chloro-2-fluoro-3-[(6-oxo-6,7-dihydro-1H-purin-1-yl)methyl]phenyl}oxy)benzonitrile trifluoroacetate], the IC50 under setting [1] was less than 0.01 µM.

`CSc1ncccc1C(=O)NCc1ccc(Cl)c(Oc2cc(Cl)cc(C#N)c2)c1F` [Example 86, N-({4-chloro-3-[(3-chloro-5-cyanophenyl)oxy]-2-fluorophenyl}methyl)-2-(methylthio)-3-pyridinecarboxamide trifluoroacetate]: the IC50 under setting [2] was in the range of 0.01 to 1 µM.

As to `CN(Cc1ccc(Cl)c(Oc2cc(Cl)cc(C#N)c2)c1F)C(=O)c1ncc[nH]1` [Example 130, N-({4-chloro-3-[(3-chloro-5-cyanophenyl)oxy]-2-fluorophenyl}methyl)-N-methyl-1H-imidazole-2-carboxamide], the IC50 under setting [2] is less than 0.01 µM.

For `N#Cc1cc(Oc2c(Cl)ccc(CNC(=O)c3[nH]c(N)nc3Cl)c2F)cc(C(F)F)c1` [Example 327, 2-amino-4-chloro-N-[(4-chloro-3-{[3-cyano-5-(difluoromethyl)phenyl]oxy}-2-fluorophenyl)methyl]-1H-imidazole-5-carboxamide trifluoroacetate], under setting [1], the IC50 is less than 0.01 µM.

On to `N#Cc1cc(Cl)cc(Oc2c(Cl)ccc(CNC(=O)c3cc4cc([N+](=O)[O-])ccc4o3)c2F)c1` [Example 50, N-({4-chloro-3-[(3-chloro-5-cyanophenyl)oxy]-2-fluorophenyl}methyl)-5-nitro-1-benzofuran-2-carboxamide trifluoroacetate], for which the IC50 under setting [2] lay within 0.01 to 1 µM.

Turning to `CCc1ccc(CNC(=O)c2[nH]c(N)nc2Cl)c(F)c1Oc1cc(Cl)cc(C#N)c1` [Example 251, 2-amino-4-chloro-N-({3-[(3-chloro-5-cyanophenyl)oxy]-4-ethyl-2-fluorophenyl}methyl)-1H-imidazole-5-carboxamide], under setting [1], the IC50 was less than 0.01 µM.

For the compound `N#Cc1cc(Cl)cc(Oc2c(Cl)ccc(CNC(=O)c3[nH]c4cc(Cl)ccc4c3Cl)c2F)c1` [Example 55, 3,6-dichloro-N-({4-chloro-3-[(3-chloro-5-cyanophenyl)oxy]-2-fluorophenyl}methyl)-1H-indole-2-carboxamide trifluoroacetate], the IC50 under setting [2] was in the range of 0.01 to 1 µM.

Take `C=CCc1cc(C#N)cc(Oc2c(Cl)ccc(CNC(=O)c3[nH]cnc3Cl)c2F)c1` [Example 156, 4-chloro-N-[(4-chloro-3-{[3-cyano-5-(2-propen-1-yl)phenyl]oxy}-2-fluorophenyl)methyl]-1′-1H-imidazole-5-carboxamide]: the IC50 under setting [1] is less than 0.01 µM.

`CC(C)(C)OC(=O)N1CCC[C@H]1C(=O)Nc1ccc2[nH]c(C(=O)NCc3ccc(Cl)c(Oc4cc(Cl)cc(C#N)c4)c3F)cc2c1` [Example 117, 1,1-dimethylethyl (2S)-2-{[(2-{[({4-chloro-3-[(3-chloro-5-cyanophenyl)oxy]-2-fluorophenyl}methyl)amino]carbonyl}-1H-indol-5-yl)amino]carbonyl}-1-pyrrolidinecarboxylate]: under setting [2], the IC50 was less than 0.01 µM.

Turning to `CSc1ncc(Cl)c(C(=O)NCc2ccc(Cl)c(Oc3cc(Cl)cc(C#N)c3)c2F)n1` [Example 101, 5-chloro-N-({4-chloro-3-[(3-chloro-5-cyanophenyl)oxy]-2-fluorophenyl}methyl)-2-(methylthio)-4-pyrimidinecarboxamide], the IC50 under setting [2] was in the range of 0.01 to 1 µM.

Consider `Cc1nc2ccccn2c1C(=O)NCc1ccc(Cl)c(Oc2cc(Cl)cc(C#N)c2)c1F` [Example 97, N-({4-chloro-3-[(3-chloro-5-cyanophenyl)oxy]-2-fluorophenyl}methyl)-2-methylimidazo[1,2-a]pyridine-3-carboxamide trifluoroacetate], for which the IC50 under setting [2] is less than 0.01 µM.

Consider `CCN(CC)S(=O)(=O)c1c[nH]c(C(=O)NCc2ccc(Cl)c(Oc3cc(Cl)cc(C#N)c3)c2F)c1` [Example 76, N-({4-chloro-3-[(3-chloro-5-cyanophenyl)oxy]-2-fluorophenyl}methyl)-4-[(diethylamino)sulfonyl]-1H-pyrrole-2-carboxamide trifluoroacetate], for which the IC50 under setting [2] fell in the range of 0.01 to 1 µM.

For the compound `N#Cc1cc(Cl)cc(Oc2c(Cl)ccc(CNC(=O)c3cc4cccc(N)c4[nH]3)c2F)c1` [Example 113, 7-amino-N-({4-chloro-3-[(3-chloro-5-cyanophenyl)oxy]-2-fluorophenyl}methyl)-1H-indole-2-carboxamide], under setting [2], the IC50 is less than 0.01 µM.

For `CN(C)CCOc1ccc2[nH]c(C(=O)NCc3ccc(Cl)c(Oc4cc(Cl)cc(C#N)c4)c3F)cc2c1` [Example 105, N-({4-chloro-3-[(3-chloro-5-cyanophenyl)oxy]-2-fluorophenyl}methyl)-5-{[2-(dimethylamino)ethyl]oxy}-1H-indole-2-carboxamide], the IC50 under setting [2] is less than 0.01 µM.

With `CNc1nc(Cl)c(C(=O)NCc2ccc(Cl)c(Oc3cc(Cl)cc(C#N)c3)c2F)[nH]1` [Example 363, 4-chloro-N-({4-chloro-3-[(3-chloro-5-cyanophenyl)oxy]-2-fluorophenyl}methyl)-2-(methylamino)-1H-imidazole-5-carboxamide trifluoroacetate], under setting [1], the IC50 was less than 0.01 µM.

`CC#Cc1cc(C#N)cc(Oc2c(Cl)ccc(CNC(=O)c3[nH]cnc3Cl)c2F)c1` [Example 317, 4-chloro-N-[(4-chloro-3-{[3-cyano-5-(1-propyn-1-yl)phenyl]oxy}-2-fluorophenyl)methyl]-1H-imidazole-5-carboxamide]: the IC50 under setting [1] was less than 0.01 µM.

`N#Cc1cc(Cl)cc(Oc2c(Br)ccc(CNC(=O)c3[nH]c(CO)nc3Cl)c2F)c1` [Example 241, N-({4-bromo-3-[(3-chloro-5-cyanophenyl)oxy]-2-fluorophenyl}methyl)-4-chloro-2-(hydroxymethyl)-1H-imidazole-5-carboxamide]: the IC50 under setting [1] is less than 0.01 µM.

Regarding `Cc1nc(Cl)c(C(=O)NCc2ccc(C(F)F)c(Oc3cc(Cl)cc(C#N)c3)c2F)[nH]1` [Example 254, 4-chloro-N-{[3-[(3-chloro-5-cyanophenyl)oxy]-4-(difluoromethyl)-2-fluorophenyl]methyl}-2-methyl-1H-imidazole-5-carboxamide], the IC50 under setting [1] was less than 0.01 µM.

As to `CCNc1nc(Cl)c(C(=O)NCc2ccc(Cl)c(Oc3cc(Cl)cc(C#N)c3)c2F)[nH]1` [Example 362, 4-chloro-N-({4-chloro-3-[(3-chloro-5-cyanophenyl)oxy]-2-fluorophenyl}methyl)-2-(ethylamino)-1H-imidazole-5-carboxamide trifluoroacetate], the IC50 under setting [1] was less than 0.01 µM.

In the case of `N#Cc1cc(Cl)cc(Oc2c(Cl)ccc(CNC(=O)c3cccnc3)c2F)c1` [Example 94, N-({4-chloro-3-[(3-chloro-5-cyanophenyl)oxy]-2-fluorophenyl}methyl)-3-pyridinecarboxamide trifluoroacetate], the IC50 under setting [2] lay in the range of 0.01 to 1 µM.

In the case of `Cc1cc(C#N)cc(Oc2c(Br)ccc(CNC(=O)c3[nH]c(N)nc3Cl)c2F)c1` [Example 240, 2-amino-N-({4-bromo-3-[(3-cyano-5-methylphenyl)oxy]-2-fluorophenyl}methyl)-4-chloro-1H-imidazole-5-carboxamide trifluoroacetate], the IC50 under setting [1] was less than 0.01 µM.

For the origin of these results see patent US8304419B2, “Chemical compounds” (priority 2007, dated 2012).
